Article PMC10821532, “Sex and Cross-Sex Testosterone Treatment Alters Gamma-Hydroxybutyrate Acid Toxicokinetics and Toxicodynamics in Rats” (Pharmaceutics, 2024)
Where two headings read alike, the source gives them in different places.

Assay: GHB toxicokinetic study, i.v. bolus, plasma and urine up to 8 h, noncompartmental analysis
Format: in vivo, Sprague Dawley rats
Details: for clearance / CL renal: Sprague Dawley, rat, iv; for CL renal: read-out: CLR - Renal clearance
Protocol: Male and female Sprague Dawley (SD) rats, ovariectomized (OVX) females, and castrated (CST) males were obtained from Charles River (Wilmington, MA, USA) at 8 weeks of age. The animals were housed under controlled temperature and humidity with an artificial 12 h light/dark cycle, and food and water were available ad libitum. The animals were acclimatized for at least one week before experiments. Hormone treatment was conducted by implanting OVX female and CST male rats subcutaneously with 60-day release pellets containing 7.5 mg testosterone or corresponding placebo pellets (Innovative Research of America) at 10 weeks of age. After 21 days of hormone exposure, rats were utilized in toxicokinetic studies. Age-matched male and female rats were used as control groups. Female rats in the estrus stage were selected for the study. Estrus cycle stages of female rats were monitored daily by vaginal lavage smear, as described in previously published literature. The Institutional Animal Care and Use Committee (IACUC) at the University of the Pacific approved all experiments.
Jugular vein cannulas were surgically implanted under anesthesia with ketamine/xylazine. Cannulas were flushed daily with heparinized saline to maintain patency. Rats were allowed a minimum of 72 h for recovery from surgery before the experiments were conducted. GHB was administered intravenously as a 1000 mg/kg i.v. bolus or 1500 mg/kg iv bolus with or without AR-C155858 (1 mg/kg i.v. bolus) via a jugular vein cannula to the animals at 13 weeks of age (N = 5–7 per group). Rats were dosed in metabolic cages with ad libitum access to water to allow for the concurrent collection of blood and urine samples for up to 8 h. GHB was administered as a 300 mg/mL solution in sterile water, and the time of administration was considered as time 0. AR-C155858 was administered as a 1 mg/mL solution in 10% cyclodextrin in normal saline 5 min after GHB administration. Blood samples (200 μL) were taken from the jugular vein cannula at different time points: 5, 10, 20, 30, 60, 90, 120, 180, 240, 270, 300, and 330 min for 1000 mg/kg and 10, 30, 60, 90, 120, 180, 240, 270, 300, 330, 360, and 390/480 min for 1500 mg/kg bolus with or without AR-C155858. Plasma samples were separated by centrifugation and stored at −20 °C. Urine samples were collected at 120, 240, and 360 min for 1000 mg/kg and 120, 240, and 390/480 min for 1500 mg/kg bolus with or without AR-C155858 post-dose; the total urine volume was determined, and the samples were stored at −20 °C.
GHB in plasma and urine were quantified using a validated liquid chromatography/tandem mass spectrometry (LC/MS/MS) assay that was described previously. Briefly, for the preparation of plasma standards and quality controls (QCs), 5 μL of GHB-d6 and 5 μL of standard stock solution or QC stock solution were added to 45 μL of blank plasma. For each unknown plasma sample, 5 μL of GHB-d6 was added to 50 μL of plasma. Protein precipitation was then performed by the addition of 800 μL of acetonitrile with 0.1% formic acid, followed by centrifugation at 10,000 rpm for 20 min. 750 μL of the supernatant was transferred to a clean disposable glass tube and evaporated using a MultiVap Nitrogen Evaporator (Organomation, Berlin, MA, USA) under a nitrogen stream. Dried samples were reconstituted in 250 μL of 95:5 double-distilled water—acetonitrile with 0.1% acetic acid. For urine standards and QCs, 25 μL of blank urine, 5 μL of standard or QC stock solution, 5 μL of GHB-d6, and 465 μL of double-distilled water were mixed. For unknown urine samples, 25 μL of the sample was added to 5 μL of GHB-d6 and 470 μL of double-distilled water. The same LC/MS/MS method was used for GHB plasma and urine analyses. LC/MS/MS equipment consisted of an Agilent 1200 series UPLC consisting of an online degasser, binary pump, and autosampler (Agilent Technologies, Santa Clara, CA, USA) connected to a Agilent 6460 Triple Quad Mass Spectrometer. […]

[1] = 1000 mg/kg GHB iv, OVX testosterone rats
[2] = 1000 mg/kg GHB iv, intact female (estrus) rats
[3] = 1000 mg/kg GHB iv, intact male rats
[4] = 1500 mg/kg GHB + 1mg/kg AR-C 155858 iv, CST testosterone placebo rats
[5] = 1500 mg/kg GHB + 1mg/kg AR-C 155858 iv, CST testosterone rats
[6] = 1500 mg/kg GHB + 1mg/kg AR-C 155858 iv, OVX testosterone placebo rats
[7] = 1500 mg/kg GHB + 1mg/kg AR-C 155858 iv, OVX testosterone rats
[8] = 1500 mg/kg GHB + 1mg/kg AR-C 155858 iv, intact female (estrus) rats
[9] = 1500 mg/kg GHB + 1mg/kg AR-C 155858 iv, intact male rats
[10] = 1500 mg/kg GHB iv, CST testosterone placebo rats
[11] = 1500 mg/kg GHB iv, CST testosterone rats
[12] = 1500 mg/kg GHB iv, OVX testosterone placebo rats
[13] = 1500 mg/kg GHB iv, OVX testosterone rats
[14] = 1500 mg/kg GHB iv, intact female (estrus) rats
[15] = 1500 mg/kg GHB iv, intact male rats

For `O=C(O)CCCO` [GHB, Γ-hydroxybutyric acid], the “AUC - Area under the curve of plasma concentration versus time profile” value (1000 mg/kg GHB iv, CST testosterone placebo rats) was 222 ± 40.7 mg·min/mL, the “AUC - Area under the curve of plasma concentration versus time profile” value (1000 mg/kg GHB iv, CST testosterone rats) was 197 ± 35.5 mg·min/mL and the “AUC - Area under the curve of plasma concentration versus time profile” value (1000 mg/kg GHB iv, OVX testosterone placebo rats) was 181 ± 10.6 mg·min/mL. For the same compound, the “AUC - Area under the curve of plasma concentration versus time profile” value [1] was 169 ± 25.9 mg·min/mL, the “CL - Total clearance” value [1] was 6.0 ± 0.8 mL/min/kg and the “AUC - Area under the curve of plasma concentration versus time profile” value [2] was 150 ± 16.6 mg·min/mL. For the same compound, the “fe – The fraction of drug eliminated from urine” value [2] was 0.39 ± 0.07, the “AUC - Area under the curve of plasma concentration versus time profile” value [3] was 224 ± 39.8 mg·min/mL and the “fe – The fraction of drug eliminated from urine” value [3] was 0.48 ± 0.06. For the same compound, the AUC [4] was 195 ± 29.6 mg·min/mL, the “fe (fraction of drug eliminated in urine)” value [4] was 0.69 ± 0.13 and the AUC [5] was 207 ± 40.4 mg·min/mL. The “fe (fraction of drug eliminated in urine)” value [5] was 0.74 ± 0.03, the AUC [6] was 162 ± 34.8 mg·min/mL and the “fe (fraction of drug eliminated in urine)” value [6] was 0.73 ± 0.05. For the same compound, the AUC [7] was 163 ± 24.9 mg·min/mL, the “fe (fraction of drug eliminated in urine)” value [7] was 0.75 ± 0.09 and the AUC [8] was 184 ± 36.3 mg·min/mL. The “fe (fraction of drug eliminated in urine)” value [8] was 0.73 ± 0.07, the AUC [9] was 185 ± 13.2 mg·min/mL and the “fe (fraction of drug eliminated in urine)” value [9] was 0.74 ± 0.03. For the same compound, the AUC [10] was 309 ± 23.8 mg·min/mL, the “fe (fraction of drug eliminated in urine)” value [10] was 0.60 ± 0.05 and the AUC [11] was 496 ± 97.6 mg·min/mL. For the same compound, the “fe (fraction of drug eliminated in urine)” value [11] was 0.44 ± 0.09, the AUC [12] was 271 ± 47.0 mg·min/mL and the “fe (fraction of drug eliminated in urine)” value [12] was 0.62 ± 0.08. For the same compound, the AUC [13] was 290 ± 122.7 mg·min/mL, the “CL (total clearance)” value [13] was 6.1 ± 2.4 mL/min/kg and the “fe (fraction of drug eliminated in urine)” value [13] was 0.41 ± 0.09. The AUC [14] was 336 ± 78.8 mg·min/mL, the “fe (fraction of drug eliminated in urine)” value [14] was 0.78 ± 0.12 and the AUC [15] was 343 ± 117.8 mg·min/mL. For the same compound, the “fe (fraction of drug eliminated in urine)” value [15] was 0.87 ± 0.07, the clearance (both sexes, plasma, 1500 mg/kg, 1500 mg/kg GHB iv, animal groups other than testosterone-treated OVX rats, read-out: Metabolic clearance, other animal groups) was under 2.2 mL/min/kg and the CL renal (female, plasma and urine, 1000 mg/kg, 1000 mg/kg GHB iv, OVX testosterone placebo rats) was 2.4 ± 0.1 mL/min/kg. The clearance (female, plasma and urine, 1000 mg/kg, 1000 mg/kg GHB iv, OVX testosterone placebo rats, read-out: CLm – Metabolic clearance) was 3.1 ± 0.3 mL/min/kg, the CL renal (female, plasma and urine, 1000 mg/kg, 1000 mg/kg GHB iv, OVX testosterone rats) was 2.4 ± 0.7 mL/min/kg and the clearance (female, plasma and urine, 1000 mg/kg, 1000 mg/kg GHB iv, OVX testosterone rats, read-out: CLm – Metabolic clearance) was 3.6 ± 0.6 mL/min/kg. It also gave a CL renal (female, plasma and urine, 1000 mg/kg, 1000 mg/kg GHB iv, intact female (estrus) rats) of 2.6 ± 0.5 mL/min/kg.
